The values that follow come from ChEMBL document CHEMBL1131871, “Piperidinylpyrroles: design, synthesis and binding properties of novel and selective dopamine D4 receptor ligands” (Bioorg Med Chem Lett, 1999).

For test [1], the target named is D(3) dopamine receptor (Homo sapiens, UniProt P35462). Kind of test: Displacement of [3H]spiperone from human Dopamine receptor D3 expressed in CHO cells. It is filed as cell-based.
Test [2] has as its target T1, D(2) dopamine receptor (Homo sapiens, UniProt P14416). Kind of test: Displacement of [3H]spiperone from human Dopamine receptor D2L expressed in CHO cells. It is filed as cell-based. (In a radioligand displacement assay an active substance lowers the binding of a labelled ligand.)
In test [3] the target is D(1A) dopamine receptor (Bos taurus, UniProt Q95136). Nature of the test: Displacement of [3H]SCH-23390 from bovine striatal membrane Dopamine receptor D1.
D(1A) dopamine receptor, sequence (Q95136 whole entry): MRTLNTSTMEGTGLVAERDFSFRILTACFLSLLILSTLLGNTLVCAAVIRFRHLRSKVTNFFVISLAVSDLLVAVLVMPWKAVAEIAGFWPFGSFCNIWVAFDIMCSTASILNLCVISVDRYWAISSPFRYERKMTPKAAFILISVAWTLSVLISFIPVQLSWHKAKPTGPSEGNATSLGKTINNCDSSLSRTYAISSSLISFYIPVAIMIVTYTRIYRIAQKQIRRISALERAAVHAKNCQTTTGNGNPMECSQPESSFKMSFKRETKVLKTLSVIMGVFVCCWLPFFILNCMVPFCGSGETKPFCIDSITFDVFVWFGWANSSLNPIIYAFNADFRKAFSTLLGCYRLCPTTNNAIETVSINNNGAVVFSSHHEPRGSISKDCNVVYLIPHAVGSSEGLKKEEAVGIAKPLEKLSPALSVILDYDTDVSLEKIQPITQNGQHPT
For test [4], the target named is T1, D(2) dopamine receptor. Kind of test: Displacement of [3H]spiperone from human Dopamine receptor D2S expressed in CHO cells. It counts as cell-based.
For test [5], the target named is T2, D(4) dopamine receptor (Homo sapiens, UniProt P21917).
T2 sequence (P21917 whole entry): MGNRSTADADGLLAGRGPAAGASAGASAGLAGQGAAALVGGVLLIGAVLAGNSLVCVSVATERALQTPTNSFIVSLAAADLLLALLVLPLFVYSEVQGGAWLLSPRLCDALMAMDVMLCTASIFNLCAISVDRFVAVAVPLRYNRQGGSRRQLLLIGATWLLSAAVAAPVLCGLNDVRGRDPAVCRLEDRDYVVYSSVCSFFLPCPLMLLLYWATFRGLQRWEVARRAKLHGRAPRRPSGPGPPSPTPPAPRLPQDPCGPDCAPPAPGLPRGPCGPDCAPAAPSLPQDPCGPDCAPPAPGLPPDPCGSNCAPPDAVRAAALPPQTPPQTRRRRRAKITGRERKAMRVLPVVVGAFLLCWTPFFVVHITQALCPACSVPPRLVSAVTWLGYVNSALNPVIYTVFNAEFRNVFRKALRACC
Nature of the test: Displacement of [3H]spiperone from human Dopamine receptor D4.4 expressed in CHO cells. It is filed as cell-based.

D(3) dopamine receptor, sequence (P35462 whole entry): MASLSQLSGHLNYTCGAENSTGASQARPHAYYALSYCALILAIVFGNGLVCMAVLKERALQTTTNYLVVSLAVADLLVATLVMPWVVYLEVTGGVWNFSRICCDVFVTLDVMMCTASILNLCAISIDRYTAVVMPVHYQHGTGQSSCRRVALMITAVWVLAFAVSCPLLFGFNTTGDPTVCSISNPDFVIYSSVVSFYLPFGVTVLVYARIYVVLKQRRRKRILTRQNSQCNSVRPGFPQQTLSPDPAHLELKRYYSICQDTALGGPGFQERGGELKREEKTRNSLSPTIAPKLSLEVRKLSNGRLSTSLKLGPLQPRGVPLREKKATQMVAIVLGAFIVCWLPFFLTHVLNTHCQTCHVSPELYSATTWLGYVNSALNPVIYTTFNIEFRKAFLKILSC
T1 sequence (P14416 whole entry): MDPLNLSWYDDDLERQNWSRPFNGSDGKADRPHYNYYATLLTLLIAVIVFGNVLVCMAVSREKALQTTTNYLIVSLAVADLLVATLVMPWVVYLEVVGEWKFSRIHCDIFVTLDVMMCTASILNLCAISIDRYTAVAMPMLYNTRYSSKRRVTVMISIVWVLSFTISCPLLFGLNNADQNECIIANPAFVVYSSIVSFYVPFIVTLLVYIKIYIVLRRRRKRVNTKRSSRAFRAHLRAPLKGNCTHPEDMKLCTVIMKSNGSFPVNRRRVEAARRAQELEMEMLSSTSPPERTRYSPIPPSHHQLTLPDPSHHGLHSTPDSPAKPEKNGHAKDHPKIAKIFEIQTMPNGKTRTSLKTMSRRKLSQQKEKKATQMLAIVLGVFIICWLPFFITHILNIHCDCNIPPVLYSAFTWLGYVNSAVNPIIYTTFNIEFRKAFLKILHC

Turning to `c1ccc(CN2CCC(n3cccc3-c3cnco3)CC2)cc1`, the inhibition constant Ki is 0.77 µM in test [1]; 0.61 µM in test [2]; 10 µM in test [3]; 0.32 µM in test [4]; 0.063 µM in test [5].
The corresponding values for `C[Si](C)(C)C#Cc1cccn1C1CCN(Cc2ccccc2)CC1` are 7.7 µM, 6.2 µM, 14 µM, 4.9 µM and 2.7 µM.
In the same order, the values of `c1ccc(CN2CCC(n3ccc(-c4cnco4)c3)CC2)cc1` are 6.8 µM, 3.4 µM, 39 µM, 3.2 µM and 0.13 µM.
For `Ic1cccn1C1CCN(Cc2ccccc2)CC1`, the inhibitory constant (Ki) in test [1] was found to be 2.6 µM; in test [2], 8.5 µM; in test [3], 11 µM; in test [4] it was 5.3 µM; in test [5], 1.5 µM.
Consider `O=Cc1ccn(C2CCN(Cc3ccccc3)CC2)c1`, for which the Ki in test [1] turned out to be 31 µM; in test [2], 49 µM; in test [3], 61 µM; in test [4], 65 µM; in test [5], 0.96 µM.
Turning to `C#Cc1cccn1C1CCN(Cc2ccccc2)CC1`, the inhibitory constant (Ki) in test [1] was 7.9 µM; in test [2] it was 6.6 µM; in test [3], 14 µM; in test [4] it was 6.3 µM; in test [5], 0.94 µM.
In the same order, the values of `c1ccc(CN2CCC(n3cccc3)CC2)cc1` are 15 µM, 8.5 µM, 34 µM, 9.8 µM and 1.1 µM.
The corresponding values for `N#CC(C#N)=Cc1cccn1C1CCN(Cc2ccccc2)CC1` are 5.1 µM, 11 µM, 15 µM, 7.8 µM and 0.28 µM.
In the same order, the values of `N#CC(C#N)=Cc1ccn(C2CCN(Cc3ccccc3)CC2)c1` are 7 µM, 13 µM, 14 µM, 18 µM and 0.23 µM.
For `O=Cc1cccn1C1CCN(Cc2ccccc2)CC1`, the Ki in test [1] was determined as 2.5 µM; in test [2], 1.4 µM; in test [3] it was 5.8 µM; in test [4], 1.5 µM; in test [5], 0.2 µM.
Turning to `C(#Cc1cccn1C1CCN(Cc2ccccc2)CC1)c1ccccc1`, the inhibition constant Ki in test [1] amounted to 8.7 µM; in test [2] it was 10 µM; in test [3] it was 16 µM; in test [4] it was 8.3 µM; in test [5] it was 3.3 µM.

In general, Ki refers to the dissociation constant of the complex between target and ligand, obtained from inhibition or displacement. Higher therefore signals weaker binding.
